Source: article PMC9820531, “Porcine Relaxin but Not Serelaxin Shows Residual Bioactivity after In Vitro Simulated Intestinal Digestion—Clues for the Development of New Relaxin Peptide Agonists Suitable for Oral Delivery” (International Journal of Molecular Sciences, 2022)

Legend:
RXFP1 relaxin receptor [1] = target: T1, RXFP1 relaxin receptor (Homo sapiens, UniProt Q9HBX9); test: cAMP response by THP-1 cells to intact relaxins; assay type: cell-based; settings: intact peptide 100 ng/mL, 15 min stimulation, IBMX 100 μM, forskolin 10^−4 M as maximum, chemiluminescent HitHunterXP cAMP II assay, triplicate points, two independent experiments
T1 construct: a marked, significant rise of cAMP in RXFP-1-expressing THP-1 cells; endogenous in cells; host or cells: THP-1 human monocytic cells (ECACC)
T1 sequence (Q9HBX9 1-757): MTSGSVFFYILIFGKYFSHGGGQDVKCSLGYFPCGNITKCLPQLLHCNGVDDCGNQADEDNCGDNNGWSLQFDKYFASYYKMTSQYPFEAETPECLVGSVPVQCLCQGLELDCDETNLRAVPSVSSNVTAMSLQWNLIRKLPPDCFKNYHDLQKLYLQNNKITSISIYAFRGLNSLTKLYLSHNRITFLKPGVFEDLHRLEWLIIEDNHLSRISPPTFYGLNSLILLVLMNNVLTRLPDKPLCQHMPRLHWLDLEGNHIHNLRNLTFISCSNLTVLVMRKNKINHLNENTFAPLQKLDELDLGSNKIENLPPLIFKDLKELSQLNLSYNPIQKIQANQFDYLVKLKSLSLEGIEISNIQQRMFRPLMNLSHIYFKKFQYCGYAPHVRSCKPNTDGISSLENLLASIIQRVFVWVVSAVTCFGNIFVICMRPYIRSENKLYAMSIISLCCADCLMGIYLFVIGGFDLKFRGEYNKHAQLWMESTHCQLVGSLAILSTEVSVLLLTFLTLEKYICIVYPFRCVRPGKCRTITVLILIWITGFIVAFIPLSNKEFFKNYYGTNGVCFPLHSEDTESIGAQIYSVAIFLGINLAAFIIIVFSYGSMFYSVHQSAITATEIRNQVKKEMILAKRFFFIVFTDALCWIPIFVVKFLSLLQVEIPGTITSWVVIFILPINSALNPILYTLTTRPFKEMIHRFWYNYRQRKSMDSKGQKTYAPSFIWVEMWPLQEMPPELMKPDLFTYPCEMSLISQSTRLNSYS
Procedure: Human monocytic THP-1 cells (European Collection of Cell Cultures ECACC, Salisbury, UK) were cultured in suspension in RPMI medium containing 10% fetal calf serum, 250 U/mL penicillin G and 250 μg/mL streptomycin in a 5% CO2 atmosphere at 37 °C. Aliquots containing 6 × 10^5 THP-1 cells in 1 mL PBS were placed in a 24-well plate, added with IBMX (100 μM) to prevent cAMP catabolism, and then incubated with intact serelaxin (100 ng/mL), pRLX (100 ng/mL) or equivalent solutions of their digestion by-products. According to previous studies, cAMP assay was carried out 15 min after addition of the stimuli, i.e., in the midst of the second, sustained cAMP surge upon RXFP1 stimulation. Measurements of cAMP were determined by the chemiluminescent HitHunterXP™ cAMP II assay (DiscoverX, Birmingham, UK). The standard curve was performed in duplicate, and the experimental points in triplicate. Since the standard curve was sigmoidal, nonlinear regression was used to extrapolate unknown experimental cAMP values, expressed as nmol/L, according to the manufacturer’s instructions. Two independent experiments were performed. For positive control, the adenylate cyclase activator forskolin (10^−4 M) was used. Finally, the values of cAMP in each experimental sample were normalized by the amount of proteins, measured by the micro-BCATM Protein Assay Kit (Pierce, IL, USA) method, and expressed as mg/mL.

RXFP1 relaxin receptor [2] = target: T1, RXFP1 relaxin receptor; test: cAMP response by THP-1 cells to SIF digestion products; assay type: cell-based; settings: SIF: pancreatin 500 μg/mL, CaCl2, pH 7, 37 °C, peptide 1.12 μM; digestion products tested at equivalent of 100 ng/mL on THP-1 cells, 15 min; read-out cAMP
Procedure: The effects of duodenal enzyme digestion on the noted serelaxin and pRLX preparations was carried out by addition of a simulated intestinal fluid (SIF), composed of a solution of pancreatin (500 μg/mL), CaCl2 0.75 M (0.1 v/v), pH adjusted to 7 adding dropwise an aqueous solution of NaOH 0.1 M to pRLX and serelaxin solutions. In particular: 0.5 mg/mL aqueous solution of pRLX (MW 5918, 0.084 mM) was added to SIF in a 50 mL Falcon, mixing in a 37 °C bath, to a final pRLX concentration 1.12 μM; 0.2 mL of this solution were sampled and quenched by pH adjusting (0.1 M HCl), at the following times: t = 0”/10”/20”/30”/60”/120”/600”/1800”. […]
Human monocytic THP-1 cells (European Collection of Cell Cultures ECACC, Salisbury, UK) were cultured in suspension in RPMI medium containing 10% fetal calf serum, 250 U/mL penicillin G and 250 μg/mL streptomycin in a 5% CO2 atmosphere at 37 °C. […] Measurements of cAMP were determined by the chemiluminescent HitHunterXP™ cAMP II assay (DiscoverX, Birmingham, UK). […] Since the standard curve was sigmoidal, nonlinear regression was used to extrapolate unknown experimental cAMP values, expressed as nmol/L, according to the manufacturer’s instructions. […] Finally, the values of cAMP in each experimental sample were normalized by the amount of proteins, measured by the micro-BCATM Protein Assay Kit (Pierce, IL, USA) method, and expressed as mg/mL.

[3] = parameters: method as in PMID 8257492; settings: in vivo; cited from earlier work
[4] = tested on: acute heart failure patients; parameters: method as in PMID 31433919, PMID 31886953; settings: IV infusion 30 μg/kg/day; cited from earlier work
RXFP-1 receptor = settings: serelaxin versus pRLX, similar cellular models; cited from earlier work

serelaxin
intracellular cAMP increase as % of the maximal cAMP surge induced by forskolin (RXFP1 relaxin receptor [1]): 88.6%
SIF exposure time at which cAMP levels dropped down to levels of unstimulated control cells (RXFP1 relaxin receptor [2]): 120 s
SIF exposure time at which the decrease in cAMP production became fully manifest and statistically significant (RXFP1 relaxin receptor [2]): 60 s
half-life [3]: about 2 h
effects on length of hospitalization, occurrence of cardiovascular death, and disease relapses requiring re-hospitalization in comparison with placebo [4]: no substantial effects
affinity for the RXFP-1 receptor relative to the other relaxin (RXFP-1 receptor): higher affinity
